Measured values published in patent US20100075979A1, “PYRIDINYLPIPERAZIN DERIVATIVES USEFUL AS MODULATORS OF DOPAMINE D3 RECEPTORS” (priority 2008, published 2010).

Target: T1, human D3 dopamine receptor (Homo sapiens, UniProt P35462)
T1 construct: expressed in transfected cells; host or cells: HEK-293 EBNA cells (transient transfection; membrane preparation)
Experiment: Radioligand binding assay ([3H]-spiperone) on membranes of HEK-293 EBNA cells expressing human D3 receptor
Conditions: [3H]-spiperone approx. 0.5 nM, 1 h at RT, cloned human D3 in HEK-293 EBNA membranes; Ki by Cheng-Prusoff
Experimental: The ability of the compounds to bind to the D3 receptors was determined using radioligand binding to cloned receptors selectively expressed in HEK-293 EBNA cells.
HEK-293 EBNA cells were transiently transfected with expression plasmids encoding for the human D3 dopamine receptor. The cells were harvested 48 h post-transfection, washed three times with cold PBS and stored at −80° C. prior to use. The pellet was suspended in cold 50 mM
Tris-HCl buffer containing 10 mM EDTA (pH 7.4) and homogenized with a Polytron (Kinematica AG, Basel, Switzerland) for 20-30 sec at 12.000 rpm. After centrifugation at 48.000×g for 30 min at 4° C., the pellet was resuspended in cold 10 mM Tris-HCl buffer containing 0.1 mM EDTA (pH 7.4), homogenized, and centrifuged as above. This pellet was further resuspended in a smaller volume of ice cold 10 mM Tris-HCl buffer containing 0.1 mM EDTA (pH 7.4) and homogenized with a Polytron for 20-30 sec at 12.000 rpm. The protein content of this homogenate was determined with the Bio-Rad (Bradford) Protein Assay (Biorad Laboratories GmbH, München, Germany) according to the instructions of the manufacturer using gamma globulin as the standard.
This homogenate was stored at −80° C. in aliquots and thawed immediately prior to use.
Aliquots of membrane preparations were thawed at RT, resuspended in assay buffer (50 mM Tris-HCl, 120 mM NaCl, 5 mM MgCl2, 1 mM EDTA, 5 mM KCl, 1.5 mM CaCl2, pH=7.4), homogenized with a Polytron for 20-30 sec at 12.000 rpm and adjusted to a final concentration of approximately 7.5 μg protein/well.
The binding affinity (Ki) of the compounds was determined using radioligand binding. Membranes were incubated in a total volume of 200 μl with a fixed concentration of radioligand (final concentration approximately 0.5 nM [^3H]-spiperone) and ten concentrations of test compound in ranging between 10 μM-0.1 nM for 1 h at RT. At the end of the incubation, the reaction mixtures were filtered on to unifilter 96-well white microplates with bonded GF/C filters (Packard BioScience, Zurich, Switzerland; preincubated for 1 h in 0.1% polyethylenimine (PEI) in assay buffer) with a Filtermate 196 harvester (Packard BioScience) and washed 3 times with cold assay buffer. The nonspecific binding was determined with equally composed reaction mixtures in the presence of 10 μM unlabelled spiperone. Per well 45 μl of Microscint 40 (Perkin Elmer, Schwerzenbach, Switzerland) was added, plates for sealed, shaken for 20 min and counted for 3 min on a Topcount Microplate Scintillation Counter (Canberra Packard SA, Zürich, Switzerland) with quenching correction.
The CPM value for each duplicate of a concentration of competing compound was averaged (y1), then the % specific binding was calculated according to the equation (((y1−non-specific)/(total binding-non-specific))×100). Graphs were plotted with the % specific binding using XLfit, a curve fitting program that iteratively plots the data using Levenburg Marquardt algorithm. The single site competition analysis equation used was y=A+((B−A)/(1+((x/C)^D))), where y is the % specific binding, A is the minimum y, B is the maximum y, C is the IC50, x is the log10 of the concentration of the competing compound and D is the slope of the curve (the Hill Coefficient). From these curves the IC50 (inhibition concentration at which 50% specific binding of the radioligand was displaced) and Hill coefficient were determined. The affinity constant (Ki) was calculated using the Cheng-Prusoff equation Ki=(IC50/1+([L]/Kd), where [L] is the concentration of radioligand and Kd is the dissociation constant of the radioligand at the receptor as determined by the saturation isotherm.

T1 sequence (P35462 whole entry): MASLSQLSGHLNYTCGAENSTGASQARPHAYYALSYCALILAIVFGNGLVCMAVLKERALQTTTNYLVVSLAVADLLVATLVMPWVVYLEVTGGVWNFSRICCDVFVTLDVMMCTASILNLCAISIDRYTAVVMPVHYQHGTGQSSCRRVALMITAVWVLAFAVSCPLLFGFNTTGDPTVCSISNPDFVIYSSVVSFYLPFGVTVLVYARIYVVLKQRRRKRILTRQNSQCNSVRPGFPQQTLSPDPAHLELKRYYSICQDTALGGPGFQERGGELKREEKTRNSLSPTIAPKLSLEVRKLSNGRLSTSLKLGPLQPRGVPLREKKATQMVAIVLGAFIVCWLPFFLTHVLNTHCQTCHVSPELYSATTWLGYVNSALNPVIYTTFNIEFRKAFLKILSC

## CC(=O)N[C@H]1CC[C@H](CCN2CCN(c3ncc(C(F)(F)F)cc3Cl)CC2)CC1 [Example 1, N-(trans-4-{2-[4-(3-Chloro-5-trifluoromethyl-pyridin-2-yl)-piperazin-1-yl]-ethyl}-cyclohexyl)-acetamide]
  Ki: 9.64 nM

## COCCC(=O)N[C@H]1CC[C@H](CCN2CCN(c3ncc(C(F)(F)F)cc3Cl)CC2)CC1 [Example 2, N-(trans-4-{2-[4-(3-Chloro-5-trifluoromethyl-pyridin-2-yl)-piperazin-1-yl]-ethyl}-cyclohexyl)-3-methoxy-propionamide]
  Ki: 5.66 nM

## CCC(=O)N[C@H]1CC[C@H](CCN2CCN(c3ncc(C(F)(F)F)cc3Cl)CC2)CC1 [Example 3, N-(trans-4-{2-[4-(3-Chloro-5-trifluoromethyl-pyridin-2-yl)-piperazin-1-yl]-ethyl}-cyclohexyl)-propionamide]
  Ki: 16.8 nM

## O=C(CC1CC1)N[C@H]1CC[C@H](CCN2CCN(c3ncc(C(F)(F)F)cc3Cl)CC2)CC1 [Example 4, N-(trans-4-{2-[4-(3-Chloro-5-trifluoromethyl-pyridin-2-yl)-piperazin-1-yl]-ethyl}-cyclohexyl)-2-cyclopropyl-acetamide]
  Ki: 10.1 nM

## CC(=O)N[C@H]1CC[C@H](CCN2CCN(c3ncccc3Cl)CC2)CC1 [Example 5, N-(trans-4-{2-[4-(3-Chloro-pyridin-2-yl)-piperazin-1-yl]-ethyl}-cyclohexyl)-acetamide]
  Ki: 1.7 nM

## CC(=O)N[C@H]1CC[C@H](CCN2CCN(c3ncc(Cl)cc3Cl)CC2)CC1 [Example 6, N-(trans-4-{2-[4-(3,5-Dichloro-pyridin-2-yl)-piperazin-1-yl]-ethyl}-cyclohexyl)-acetamide]
  Ki: 9.64 nM

## CC(=O)N[C@H]1CC[C@H](CCN2CCN(c3ccc(C(F)(F)F)nc3)CC2)CC1 [Example 7, N-(trans-4-{2-[4-(6-Trifluoromethyl-pyridin-3-yl)-piperazin-1-yl]-ethyl}-cyclohexyl)-acetamide]
  Ki: 5.66 nM

## NC(=O)CC(=O)N[C@H]1CC[C@H](CCN2CCN(c3ncc(C(F)(F)F)cc3Cl)CC2)CC1 [Example 8, N-(trans-4-{2-[4-(3-Chloro-5-trifluoromethyl-pyridin-2-yl)-piperazin-1-yl]-ethyl}-cyclohexyl)-malonamide]
  Ki: 16.8 nM

## COc1cccnc1N1CCN(CC[C@H]2CC[C@H](NC(C)=O)CC2)CC1 [Example 9, N-(trans-4-{2-[4-(3-Methoxy-pyridin-2-yl)-piperazin-1-yl]-ethyl}-cyclohexyl)-acetamide]
  Ki: 10.1 nM

## CC(=O)N[C@H]1CC[C@H](CCN2CCN(c3ccnc(Cl)c3Cl)CC2)CC1 [Example 10, N-(trans-4-{2-[4-(2,3-Dichloro-pyridin-4-yl)-piperazin-1-yl]-ethyl}-cyclohexyl)-acetamide]
  Ki: 1.7 nM
